Tests used:
[1] = mouse, in vivo
Protocol: 1. The purpose of this study is to determine tissue levels of a test article after dosing in mice.
3. Test system • Number of animals: 39 • Species/strain or breed: C57BL/6J • Age/Wt. at Arrival: 7 weeks • Sex: Female
On study day 0 animals were randomized into treatment groups based on body weight. Following enrollment, treatment was initiated and continued as indicated below. Body weights were recorded following enrollment. Sample collection time points are outlined below On study day 1, animals were necropsied as specified in Section 6.6 below.
7.6 Necropsy information • Method of euthanasia: bleed to exsanguinate followed by cervical dislocation. • Time points: N=3 at each time point; 0 (vehicle); 10 min; 30 min; 1, 2, 3 and 4h
Terminal blood samples were collected via cardiac blood draw and processed for plasma (K2 EDTA, 300-400 uL/animal. Plasma samples were stored at −80 C for shipment on dry ice for bioanalysis. From each animal, the entire brain was collected, flash frozen, and stored at −80 C for shipment on dry ice to bioanalysis.
A study was performed to collect plasma for pharmacokinetic monitoring after a single dose of R-(−)-3-hydroxybutyric acid sodium salt (“BHB”) or R-3′-hydroxybutyl (R)-3′-hydroxybutyrate (“BHB ester”) in female C57BL/6 mice. […]

[2] = test system: IL-1β, IL-6, IL-10, TNF-α; experiment: Luminex Mouse Inflammatory Panel in cortex after TBI; assay type: in vivo, C57BL/6J female mice
Protocol: Sacrifice Schedule: • a. Day 0—animals 1-5, all groups, 4h post TBI • b. Day 1—animals 6-10, all groups, 24 h post-TBI • c. Day 14—animals 11-20, all groups, 14d post TBI
Luminex Mouse Inflammatory Panel. FIG. 9A-FIG. 9C show pg/pg total protein of IL-1β (FIG. 9A), IL-6 (FIG. 9B) and IL-10 (FIG. 9C) expressed in the cortex in each study group from FIG. 8. […] While IL-10 is generally thought of as an anti-inflammatory cytokine, it also may promote fibrotic processes [Steen, E H et al. Adv. Wound Care (New Rochelle) (2020) 9 (4): 184-98, citing O'Garra, A. et al. Immunol. Rev. ([…]) 223: 114-31]. The data for the pre+post groups are consistent with the behavioral data.

[3] = test system: weight drop model of TBI; experiment: Beam-walk behavioral assay in the weight drop model of TBI; assay type: in vivo, C57BL/6J female mice
Source text: Test System. • Number of animals: 120 (100+20 extra for TBI deaths0 • Species/Strain or Breed: C57BL/6J • Vendor: Jackson Labs • Age/Wt at Arrival: 11 weeks at arrival • Gender: Female • Age/Wt at Study Initiation: 12 weeks • Acclimation: 7 days • Housing: 3-4 animals/cage
Study Design. Animals will arrive in the facility and will have access to food and water ad libitum. On study day 0, animals will be randomized based on bodyweight. Animals will be briefly anesthetized with isoflurane and subjected to traumatic brain injury (TBI) or sham injury as listed under Injury Induction. Animals will be weighed and undergo behavior testing (Beam Walking) and necropsied according to the Necropsy section.
They will then be placed individually in the prone position in a foam bed with their heads directly under a Plexiglas tube. A brass weight (80 g) will be dropped once through the tube from a specific height (0.8 m) and will strike the head directly creating a midline impact injury. Animals will be monitored for the presence of the forearm fencing response as a sign of moderate TBI. Animals will be placed in a clean cage on a heating pad for recovery, and righting reflex recovery times will be recorded for all animals. Sham animals will undergo all the same procedures but will not be subjected to TBI. Animals will be given 0.1 mg/kg SC buprenorphine directly after TBI to reduce acute pain associated with the injury and directly after sham procedures for the purpose of experimental matching. Animals will be checked daily, per the IACUC-approved post-operative monitoring plan.
Behavioral assay—Beam Walking (Luong, T N et al. Assessment of motor balance and coordination in mice using the balance beam.” J. Vis. Exp. (2011) 49: 2376) Fine motor coordination and balance can be assessed by the beam walking assay, which is a popular test for analyzing mice's gait in an environment that challenges their ability to balance themselves. The goal of this test is for the mouse to stay upright and walk across an elevated narrow beam to a safe platform. Performance on the beam is quantified by measuring the time it takes for the mouse to traverse the beam and the number of paw slips that occur in the process. This task is particularly useful for detecting subtle deficits in motor skills and balance that may not be detected by other motor tests, such as the Rotarod.
This test takes place over 3 consecutive days: 2 days of training and 1 day of testing. On training days, each mouse crosses the 12 mm beam 3 times and then the 6 mm beam 3 times. […] Mice are placed at one end of a beam and the time required to cross to the escape box at the other end (80 cm away) is measured by the motion detectors. […]
On the test day, times to cross each beam are recorded. […]

[4] = test system: Neurofilament Light (NfL) Chain; experiment: Neurofilament light chain in plasma after TBI; assay type: in vivo, C57BL/6J female mice; settings: preliminary, data not shown
Protocol: Plasma collection method: Centrifuge plasma samples (EDTA tubes) at 2200×g (not RPM) for 15 minutes at room temperature. Observe separation of blood cells and plasma, with plasma layer on top. Draw off only the plasma layer and take care not to disturb buffy coat when aliquoting by leaving some plasma behind and avoiding the cell layer. Aliquot samples immediately into appropriately labeled tubes and then place them in a −80° C. freezer. […] [table]

[5] = citing Newman and Verdin 2017; cited from earlier work
[6] = target: human HCA2 (Homo sapiens, UniProt Q8TDS4); settings: citing Taggart et al. 2005; read-out: EC50 for activation of human HCA2; cited from earlier work
human HCA2, sequence (Q8TDS4 whole entry): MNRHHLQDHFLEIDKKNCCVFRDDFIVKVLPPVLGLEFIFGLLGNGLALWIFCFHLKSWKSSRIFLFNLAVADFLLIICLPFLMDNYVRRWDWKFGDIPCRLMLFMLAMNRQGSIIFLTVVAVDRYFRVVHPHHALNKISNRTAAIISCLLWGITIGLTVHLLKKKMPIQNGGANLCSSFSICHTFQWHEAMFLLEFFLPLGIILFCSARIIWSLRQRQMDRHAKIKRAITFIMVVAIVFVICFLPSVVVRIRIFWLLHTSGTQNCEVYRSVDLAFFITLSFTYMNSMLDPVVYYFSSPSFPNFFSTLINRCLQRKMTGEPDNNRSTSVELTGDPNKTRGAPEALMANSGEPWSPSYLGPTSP

| SMILES | plasma levels relative to brain levels [1] | IL-1β expression in cortex ([2]; 24 h and 14 day time points) | IL-6 expression in cortex ([2]; 24 h and 14 day time points) | IL-10 expression in cortex ([2]; 24 h and 14 day time points) | TNF-α results ([2]; data not shown) | improvement in foot faults ([3]; 2× pre+post group, 1 day after TBI, IN daily) [%] | foot faults after IN delivery after TBI ([3]; as soon as day 1 after injury, greatest decrease in post and 2× pre and post groups at day 3) | beam walking at day 3, all treated groups ([3]; day 3, best results in post and 2× pre+post groups) | beam walking, treated groups vs TBI vehicle ([3]; pre, post, pre+post and 2× pre+post groups, day 1 and day 3) | NfL plasma results [4] | solubility in water and blood [5] | EC50 [6] [µM] |
| --- | --- | --- | --- | --- | --- | --- | --- | --- | --- | --- | --- | --- |
| C[C@@H](O)CCOC(=O)C[C@@H](C)O [BHB ester, R-3′-hydroxybutyl (R)-3′-hydroxybutyrate] | approximately ten fold |  |  |  |  |  |  |  |  |  |  |  |
| C[C@@H](O)CC(=O)[O-].[Na+] [BHB salt, R-(−)-3-hydroxybutyric acid sodium salt] | approximately ten fold | decreased expression | decreased expression | decreased expression | not significant | 70 | decreased foot faults | significantly improved | showed improvement in beam walking | not significant |  |  |
| CC(O)CC(=O)O (stereo not drawn) [BHB, beta-hydroxybutyrate] |  |  |  |  |  |  |  |  |  |  | readily soluble in water and blood | ~700 |
